Where “and” joins values, the source holds several entries; their conditions need not be identical. Equal entries are not always repeated. Structures can show the parent of a compound that is named as a salt.
Key:
two-spotted spider mite = assay: Two-spotted spider mite test; format: in vivo, Tetranychus urticae; details: 1000 ppm, 4 days; note: ranges in brackets are in %
Description: In this evaluation, each compound to be tested was dissolved in a 1:1 mixture of acetone and ethanol containing a small amount of Toximul R and Toximul S (each a sulfonate/nonionic blend produced by Stephan Chemical Company, Northfield, Ill.). The solution was then diluted with distilled water to a concentration of 1000 ppm of test compound. Lesser concentration formulations were made by diluting a portion of the 1000 ppm solution with distilled water containing 225 mg. of Toximul R and 125 mg. of Toximul S per liter.
This test was conducted with nymphs and adults of Tetranychus urticae (Koch), Order Acarina, Family Tetranychidae.
This test was run using blue hubbard squash plants which were grown in vermiculite (insulation grade No. 1) in 5 oz. plastic Dixie cups. One cotyledon is removed from each plant to remain in the cups. On retests two plants were left in each cup and on regular initial tests one plant was left in each cup. Each cotyledon is infested by placing a mite infested trifoliate bean leaf on if. Infected plants in cups were held for one day, then sprayed to wetting with formulations containing 1000 ppm of the test compound, using the DeVilbiss atomizer with 5-6 psi air pressure. Retests were run at 100 ppm. Tests were read four days after treatment. Two unsprayed but infested plants were held as a control. Two infested plants were sprayed with a formulation containing 750 ppm of galecron [N'-(4-chloro-o-tolyl)-N,N-dimethylformamidine monohydrochloride] as a reference standard.

Southern armyworm = Southern armyworm test; format: in vivo, Spodoptera eridania; details: 1000 ppm, 4 days; for Southern Armyworm Stom. (mortality rating): ranges in brackets are in %
Description: In this evaluation, each compound to be tested was dissolved in a 1:1 mixture of acetone and ethanol containing a small amount of Toximul R and Toximul S (each a sulfonate/nonionic blend produced by Stephan Chemical Company, Northfield, Ill.). The solution was then diluted with distilled water to a concentration of 1000 ppm of test compound.
This test was conducted with second to third instar larvae of Spodoptera eridania Cramer, Order Lepidoptera, Family Noctuidae. Uniform larvae (3rd instar) about 1 to 1.2 cm. in length were picked by hand from flats of Henderson lima beans and placed in plastic petri dishes.
The procedure otherwise was the same as used with the Mexican bean beetle reported above, except that 5 ml. of a formulation containing 100 ppm (0.01%) DDT [1,1,1-trichloro-2,2-bis(p-chlorophenyl)ethane] was used as the reference standard.

Corn [1] = assay: Post-emergence herbicide test, corn; format: in vivo, Zea mays
Description: (§1) In this evaluation, each compound to be tested was dissolved in a 1:1 mixture of acetone and ethanol containing a small amount of Toximul R and Toximul S (each a sulfonate/nonionic blend produced by Stepan Chemical Company, Northfield, Illinois). The solution was then diluted with deionized water to a composition of the following concentrations, by weight: Plant species used as indicators of herbicidal activity were planted in galvanized pans (flats) 31.5 cm. long, 21.5 cm. wide, and 8.0 cm. deep. The bottoms of the flats had holes to facilitate drainage. The soil used was a 1:1 ratio by volume of masonry sand and shredded top soil. Seeds of seven indicator species were planted in rows perpendicular to the long axis of the flat, one species per row, and covered with 0.5 to 1.0 cm. of sterilized soil. Indicator species and approximate number of seeds planted were as follows: Flats that were to receive preemergence treatments were planted one day prior to, or on the same day treatments were applied. Flats that were to receive postemergence treatments were planted 9 days prior to treatment and placed in a growth chamber until the day of treatment. In the growth chamber, flats received 12 to 18 hours of light per day and were subject to temperatures of 75° to 85° F. The formulated test compound was applied uniformly to the indicator species with a modified DeVilbiss atomizer using air pressure of 3 to 5 psi. Each flat received 12.5 ml. of spray solution which was equal to 200 gallons/acre total spray volume. Plants were maintained in a greenhouse after treatment. Herbicidal effects of chemicals were evaluated by two injury rating systems 18 days after preemergence applications and 14 days after postemergence applications. The degree of plant injury was based on a 1 to 5 scale and a single numerical rating was assigned to each test species as follows: […]

Pigweed [2] = assay: Post-emergence herbicide test, pigweed; format: in vivo, Amaranthus retroflexus
Description: as §1

Velvetleaf = assay: Post-emergence herbicide test, velvetleaf; format: in vivo, Abutilon theophrasti
Description: as §1

Foxtail [3] = assay: Post-emergence herbicide test, foxtail; format: in vivo, Setaria italica
Description: as §1

Large Crabgrass [4] = assay: Pre-emergence herbicide test, large crabgrass; format: in vivo, Digitaria sanguinalis
Description: as §1

Pigweed [5] = assay: Pre-emergence herbicide test, pigweed; format: in vivo, Amaranthus retroflexus
Description: as §1

Morning-glory = assay: Pre-emergence herbicide test, morningglory; format: in vivo, Ipomoea purpurea
Description: as §1

Large Crabgrass [6] = assay: Post-emergence herbicide test, large crabgrass; format: in vivo, Digitaria sanguinalis
Description: as §1

Zinnia [7] = assay: Pre-emergence herbicide test, zinnia; format: in vivo, Zinnia elegans
Description: as §1

Zinnia [8] = assay: Post-emergence herbicide test, zinnia; format: in vivo, Zinnia elegans
Description: as §1

Foxtail [9] = assay: Pre-emergence herbicide test, foxtail; format: in vivo, Setaria italica
Description: as §1

Corn [10] = assay: Pre-emergence herbicide test, corn; format: in vivo, Zea mays
Description: as §1

## O=[N+]([O-])c1cc(Cl)cc2c1NC(O)(C(F)F)N2 (centres unmarked) [Example 5, 2-Hydroxy-2-(Difluoromethyl)-4-Nitro-6-Chlorobenzimidazoline, Calcium Salt]
two-spotted spider mite
  2-Sp. Spider Mite Cont. (mortality rating): 3 (100)
Southern armyworm
  Southern Armyworm Feed. (feeding rating): 1 (1-50% of the leaves eaten)
Southern armyworm; Calcium Salt
  Southern Armyworm Stom. (mortality rating): 3 (100) and 2 (51-99)
Corn [1]; 1 lb/A
  plant injury rating: 1 (no injury)
Corn [1]; 2 lb/A
  plant injury rating: 2B
Corn [1]; 4 lb/A
  plant injury rating: 4BS
Corn [1]; 8 lb/A
  plant injury rating: 5D
Pigweed [2]; 1 lb/A
  plant injury rating: 2S
Pigweed [2]; 2 lb/A
  plant injury rating: 3BS
Pigweed [2]; 4 lb/A
  plant injury rating: 3BS
Pigweed [2]; 8 lb/A
  plant injury rating: 4BS
Velvetleaf; 1 lb/A
  plant injury rating: 3BS
Velvetleaf; 2 lb/A
  plant injury rating: 3BS
Velvetleaf; 4 lb/A
  plant injury rating: 4BS
Velvetleaf; 8 lb/A
  plant injury rating: 5D
Foxtail [3]; 1 lb/A
  plant injury rating: 4BS
Foxtail [3]; 2 lb/A
  plant injury rating: 4BS
Foxtail [3]; 4 lb/A
  plant injury rating: 3BS
Foxtail [3]; 8 lb/A
  plant injury rating: 5D
Large Crabgrass [4]; 8 lb/A
  plant injury rating: 3RS
Pigweed [5]; 8 lb/A
  plant injury rating: 2S
Morning-glory; 8 lb/A
  plant injury rating: 3RS
Large Crabgrass [6]; 1 lb/A
  plant injury rating: 3BS
Large Crabgrass [6]; 2 lb/A
  plant injury rating: 3BS
Large Crabgrass [6]; 4 lb/A
  plant injury rating: 4BS
Large Crabgrass [6]; 8 lb/A
  plant injury rating: 4BS
Zinnia [7]; 8 lb/A
  plant injury rating: 4R
Zinnia [8]; 1 lb/A
  plant injury rating: 3BS
Zinnia [8]; 2 lb/A
  plant injury rating: 3BS
Zinnia [8]; 4 lb/A
  plant injury rating: 4BS
Zinnia [8]; 8 lb/A
  plant injury rating: 5D
Foxtail [9]; 8 lb/A
  plant injury rating: 3R
Corn [10]; 8 lb/A
  plant injury rating: 1 (no injury)

## O=[N+]([O-])c1cc(C(F)(F)F)cc2c1NC(O)(C(F)(F)C(F)F)N2O (centres unmarked) [Example 12, 1,2-Dihydroxy-2-(1,1,2,2-Tetrafluoroethyl)-4-Nitro-6-(Trifluoromethyl)Benzimidazoline]
two-spotted spider mite
  2-Sp. Spider Mite Cont. (mortality rating): 3 (100)
Southern armyworm
  Southern Armyworm Stom. (mortality rating): 0 (0)
Corn [1]; 1/4 lb/A
  plant injury rating: 1 (no injury)
Corn [1]; 1/8 lb/A
  plant injury rating: 1 (no injury)
Corn [1]; 1 lb/A
  plant injury rating: 1 (no injury)
Corn [1]; 2 lb/A
  plant injury rating: 2B
Corn [1]; 8 lb/A
  plant injury rating: 1 (no injury)
Pigweed [2]; 1/4 lb/A
  plant injury rating: 3BS
Pigweed [2]; 1/8 lb/A
  plant injury rating: 3BS
Pigweed [2]; 1 lb/A
  plant injury rating: 5D
Pigweed [2]; 2 lb/A
  plant injury rating: 5D
Pigweed [2]; 8 lb/A
  plant injury rating: 5D
Velvetleaf; 1/4 lb/A
  plant injury rating: 2B
Velvetleaf; 1/8 lb/A
  plant injury rating: 2SB
Velvetleaf; 1 lb/A
  plant injury rating: 4BS
Velvetleaf; 2 lb/A
  plant injury rating: 4BS
Velvetleaf; 8 lb/A
  plant injury rating: 4BS
Foxtail [3]; 1/4 lb/A
  plant injury rating: 2B
Foxtail [3]; 1/8 lb/A
  plant injury rating: 2S
Foxtail [3]; 1 lb/A
  plant injury rating: 4BS
Foxtail [3]; 2 lb/A
  plant injury rating: 4BS
Foxtail [3]; 8 lb/A
  plant injury rating: 3BS
Large Crabgrass [4]; 1/2 lb/A
  plant injury rating: 1 (no injury)
Large Crabgrass [4]; 1 lb/A
  plant injury rating: 2S
Large Crabgrass [4]; 2 lb/A
  plant injury rating: 4SB
Large Crabgrass [4]; 8 lb/A
  plant injury rating: 4RS
Pigweed [5]; 1/2 lb/A
  plant injury rating: 1 (no injury)
Pigweed [5]; 1 lb/A
  plant injury rating: 3S
Pigweed [5]; 2 lb/A
  plant injury rating: 4S
Pigweed [5]; 8 lb/A
  plant injury rating: 5N
Morning-glory; 1/2 lb/A
  plant injury rating: 1 (no injury)
Morning-glory; 1 lb/A
  plant injury rating: 1 (no injury)
Morning-glory; 2 lb/A
  plant injury rating: 1 (no injury)
Morning-glory; 8 lb/A
  plant injury rating: 3BS
Large Crabgrass [6]; 1/4 lb/A
  plant injury rating: 3BS
Large Crabgrass [6]; 1/8 lb/A
  plant injury rating: 3BS
Large Crabgrass [6]; 1 lb/A
  plant injury rating: 5D
Large Crabgrass [6]; 2 lb/A
  plant injury rating: 5D
Large Crabgrass [6]; 8 lb/A
  plant injury rating: 3BS
Zinnia [7]; 1/2 lb/A
  plant injury rating: 1 (no injury)
Zinnia [7]; 1 lb/A
  plant injury rating: 1 (no injury)
Zinnia [7]; 2 lb/A
  plant injury rating: 1 (no injury)
Zinnia [7]; 8 lb/A
  plant injury rating: 4RS
Zinnia [8]; 1/4 lb/A
  plant injury rating: 3B
Zinnia [8]; 1/8 lb/A
  plant injury rating: 2B
Zinnia [8]; 1 lb/A
  plant injury rating: 5D
Zinnia [8]; 2 lb/A
  plant injury rating: 5D
Zinnia [8]; 8 lb/A
  plant injury rating: 4BS
Foxtail [9]; 1/2 lb/A
  plant injury rating: 1 (no injury)
Foxtail [9]; 1 lb/A
  plant injury rating: 1 (no injury)
Foxtail [9]; 2 lb/A
  plant injury rating: 1 (no injury)
Foxtail [9]; 8 lb/A
  plant injury rating: 2S
Corn [10]; 1/2 lb/A
  plant injury rating: 1 (no injury)
Corn [10]; 1 lb/A
  plant injury rating: 1 (no injury)
Corn [10]; 2 lb/A
  plant injury rating: 1 (no injury)
Corn [10]; 8 lb/A
  plant injury rating: 1 (no injury)
